Measurements as given in US20230201870A1, “PLASMA COATING METHOD AND APPARATUS FOR BIOLOGICAL SURFACE MODIFICATION” (MOLECULAR PLASMA GROUP S.A., priority 2020, published 2023).
Like-named read-outs stand apart in the source and are kept apart here.

What was measured:
Format in all cases: cell-based
Bacteriophage MS2 = experiment: Viral load reduction test (ASTM E2721-16, MS2 in place of Influenza A) on plasma-coated substrate
[1] = tested on: Staphylococcus aureus (gram-positive); experiment: Antibacterial activity of plasma-coated material (OECD guideline, ISO 22197/20743), gram-positive; conditions: S. aureus
[2] = tested on: Escherichia coli (gram-negative); experiment: Antibacterial activity of plasma-coated material (OECD guideline, ISO 22197/20743), gram-negative; conditions: E. coli
[3] = plasma coating from precursor on Tyvek substrate, MS2 phages, vs untreated control, LOD = limit of detection
[4] = PPNW substrate (polypropylene nonwoven, 25 g/m^2)
[5] = synthetic textile substrate (Tyvek)

Molecule: C=CC(=O)NCCC[N+](C)(C)C.[Cl-] [APTAC, (3-Acrylamidopropyl)trimethylammonium chloride]
- LOG Reduction (Bacteriophage MS2; [3]): 2.1 log

Molecule: O=C(O)CC(O)(CC(=O)O)C(=O)O [Citric acid]
- LOG Reduction (Bacteriophage MS2; [3]): > 5.0 (LOD) log
- %Gram+ bacteria reduced [1, 4]: > 99.995%
- Gram+ log reduction [1, 4]: > 4.3 log
- %Gram+ bacteria reduced [1, 5]: > 99.98%
- Gram+ log reduction [1, 5]: > 3.8 log
- % Gram-bacteria reduced [2, 4]: > 99.999%
- Gram-log reduction [2, 4]: > 5.0 log
- % Gram-bacteria reduced [2, 5]: 97.5%
- Gram-log reduction [2, 5]: 1.6 log

Molecule: C=C(C)C(=O)OCCN(C)C [DIMAEMA, 2-(N,N-dimethylamino)ethyl methacrylate]
- %Gram+ bacteria reduced [1, 4]: > 99.994%
- Gram+ log reduction [1, 4]: > 4.2 log
- %Gram+ bacteria reduced [1, 5]: > 99.95%
- Gram+ log reduction [1, 5]: > 3.3 log
- % Gram-bacteria reduced [2, 4]: > 99.9996%
- Gram-log reduction [2, 4]: > 5.4 log
- % Gram-bacteria reduced [2, 5]: 20.6%
- Gram-log reduction [2, 5]: 0.1 log

Molecule: CCCCCCCCCCCCCCCCCC[N+](C)(C)CCC[Si](OC)(OC)OC.[Cl-] [SiQAM, Dimethyloctadecyl[3-(trimethoxysilyl)propyl] ammonium chloride solution]
- LOG Reduction (Bacteriophage MS2; [3]): 1.56 log
- %Gram+ bacteria reduced [1, 4]: > 99.994%
- Gram+ log reduction [1, 4]: > 4.2 log
- %Gram+ bacteria reduced [1, 5]: > 99.95%
- Gram+ log reduction [1, 5]: > 3.3 log
- % Gram-bacteria reduced [2, 4]: > 99.9996%
- Gram-log reduction [2, 4]: > 5.4 log
- % Gram-bacteria reduced [2, 5]: > 98.7%
- Gram-log reduction [2, 5]: > 1.9 log

Molecule: Benzalkonium chloride [reference compound]
- LOG Reduction (Bacteriophage MS2): > 3.8 (LOD) log
- %Gram+ bacteria reduced [1, 4]: > 99.994%
- Gram+ log reduction [1, 4]: > 4.2 log
- %Gram+ bacteria reduced [1, 5]: > 99.5%
- Gram+ log reduction [1, 5]: > 3.3 log
- Gram-log reduction [2, 4]: 5.4 log
- Gram-log reduction [2, 5]: 1.9 log
